How the values were obtained:
Assay in all cases: relative viability (nuclei count vs DMSO), 5 days (fraction); higher = more cells survive
[1] = compound: C1COCCN1C2=NC(=NC3=C2OC4=C3C=CC=N4)C5=CC(=CC=C5)NC(=O)C6=CN=C(C=C6)N + CC(C)C[C@H](NC(=O)[C@H](Cc1ccccc1)NC(=O)c1cnccn1)B(O)O [Bortezomib] (partner 0.002 µM)
Procedure, shortened: (§1)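 One day after seeding in 1536-well plates, lung cancer cell lines were dosed by pin tool. Dosing was either single-drug or a fixed anchor-drug dose plus five library-drug doses (not always all listed) in √10 steps. After 5 days, nuclei were stained in one fix-and-stain step and counted on 4× images, and relative viability is the nuclei count of treated wells over that of vehicle wells, given as the median of duplicate plates.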

[2] = compound: C1COCCN1C2=NC(=NC3=C2OC4=C3C=CC=N4)C5=CC(=CC=C5)NC(=O)C6=CN=C(C=C6)N + N=C(N)NC(=N)NCCc1ccccc1 [Phenformin] (partner 250 µM)
Procedure, shortened: as §1

Entinostat + Dasatinib = compound: Nc1ccccc1NC(=O)c1ccc(CNC(=O)OCc2cccnc2)cc1 [Entinostat] + Cc1nc(Nc2ncc(C(=O)Nc3c(C)cccc3Cl)s2)cc(N2CCN(CCO)CC2)n1 [Dasatinib] (partner 0.075 µM)
Procedure, shortened: as §1

[3] = compound: C1COCCN1C2=NC(=NC3=C2OC4=C3C=CC=N4)C5=CC(=CC=C5)NC(=O)C6=CN=C(C=C6)N + C[C@]1(O)C[C@@H](c2nc(-c3ccc4ccc(-c5ccccc5)nc4c3)c3c(N)nccn32)C1 [Linsitinib] (partner 1 µM)
Procedure, shortened: as §1

Cell Line | relative viability ([1]; first compound 0.02 µM) | relative viability ([1]; first compound 0.06325 µM) | relative viability ([1]; first compound 0.2 µM) | relative viability ([1]; first compound 0.6325 µM) | relative viability ([1]; first compound 2 µM) | relative viability ([2]; first compound 0.02 µM) | relative viability ([2]; first compound 0.06325 µM) | relative viability ([2]; first compound 0.2 µM) | relative viability ([2]; first compound 0.6325 µM) | relative viability ([2]; first compound 2 µM) | relative viability (Entinostat + Dasatinib; first compound 0.02 µM) | relative viability (Entinostat + Dasatinib; first compound 0.06325 µM) | relative viability (Entinostat + Dasatinib; first compound 0.2 µM) | relative viability (Entinostat + Dasatinib; first compound 0.6325 µM) | relative viability (Entinostat + Dasatinib; first compound 2 µM) | relative viability ([3]; first compound 0.02 µM) | relative viability ([3]; first compound 0.06325 µM) | relative viability ([3]; first compound 0.2 µM) | relative viability ([3]; first compound 0.6325 µM) | relative viability ([3]; first compound 2 µM)
SK-LU-1 | 1.31 | 0.998 | 1.02 | 1.14 | 0.63 | 0.56 | 0.488 | 0.513 | 0.567 | 0.349 | 0.186 | 0.237 | 0.186 | 0.199 | 0.147 | 1.23 | 1.13 | 1.02 | 1.18 | 0.574
NCI-H838 | 0.708 | 0.872 | 0.564 | 0.659 | 0.469 | 0.514 | 0.687 | 0.485 | 0.414 | 0.198 | 0.424 | 0.324 | 0.455 | 0.469 | 0.258 | 0.977 | 1.08 | 0.933 | 0.78 | 0.371
LOU-NH91 | 0.511 | 0.474 | 0.481 | 0.489 | 0.461 | 0.709 | 0.723 | 0.724 | 0.721 | 0.652 | 0.565 | 0.607 | 0.574 | 0.566 | 0.509 | 0.893 | 0.998 | 0.989 | 0.92 | 0.769
BEN | 0.961 | 0.738 | 0.764 | 0.761 | 0.711 | 0.278 | 0.263 | 0.269 | 0.253 | 0.318 | 0.318 | 0.341 | 0.308 | 0.264 | 0.179 | 0.953 | 0.94 | 1.05 | 0.941 | 0.569
NCI-H2085 | 1.02 | 1.1 | 1.05 | 0.943 | 0.769 | 0.686 | 0.753 | 0.678 | 0.629 | 0.398 | 0.226 | 0.243 | 0.228 | 0.248 | 0.244 | 0.839 | 1.02 | 0.885 | 0.82 | 0.456
LCLC-103H | 0.969 | 1.24 | 1 | 0.978 | 0.722 | 0.328 | 0.34 | 0.33 | 0.343 | 0.252 | 0.478 | 0.458 | 0.48 | 0.362 | 0.224 | 1.05 | 1.15 | 1.21 | 1.03 | 0.978
ABC-1 | 0.311 | 0.315 | 0.288 | 0.298 | 0.302 | 0.225 | 0.242 | 0.241 | 0.235 | 0.207 | 0.47 | 0.751 | 0.663 | 0.51 | 0.486 | 0.724 | 0.93 | 0.713 | 0.635 | 0.538
NCI-H650 | 0.773 | 0.906 | 0.75 | 0.909 | 0.529 | 0.453 | 0.469 | 0.417 | 0.457 | 0.431 | 0.496 | 0.498 | 0.455 | 0.357 | 0.26 | 0.876 | 0.876 | 0.857 | 0.837 | 0.659
NCI-H1792 | 1.2 | 0.905 | 0.994 | 0.86 | 0.374 | 0.245 | 0.471 | 0.211 | 0.218 | 0.179 | 0.692 | 0.802 | 0.825 | 0.452 | 0.402 | 0.608 | 0.508 | 0.565 | 0.257 | 0.468
EPLC-272H | 0.965 | 0.994 | 0.816 | 0.931 | 0.558 | 0.306 | 0.305 | 0.26 | 0.241 | 0.282 | 0.364 | 0.417 | 0.289 | 0.195 | 0.2 | 1.27 | 1.07 | 1.12 | 1.01 | 0.721
NCI-H1563 | 0.883 | 0.81 | 0.84 | 0.665 | 0.589 | 0.647 | 0.636 | 0.654 | 0.593 | 0.532 | 0.465 | 0.48 | 0.438 | 0.461 | 0.42 | 1.22 | 1.32 | 1.22 | 0.901 | 0.884
EKVX | 1.09 | 1.19 | 1.02 | 1.11 | 0.585 | 0.223 | 0.21 | 0.207 | 0.216 | 0.181 | 0.656 | 0.51 | 0.492 | 0.435 | 0.343 | 1.1 | 1.02 | 1.1 | 0.972 | 0.642
NCI-H1666 | 0.781 | 0.902 | 0.735 | 0.588 | 0.486 | 0.577 | 0.608 | 0.473 | 0.567 | 0.442 | 0.751 | 0.781 | 0.833 | 0.595 | 0.455 | 0.867 | 0.908 | 0.804 | 0.817 | 0.681
HCC-15 | 1.03 | 1.04 | 0.994 | 1.05 | 0.677 | 0.546 | 0.528 | 0.462 | 0.388 | 0.25 | 0.664 | 0.749 | 0.595 | 0.33 | 0.178 | 0.871 | 0.926 | 0.813 | 0.832 | 0.634
LCLC-97TM1 | 0.704 | 0.635 | 0.499 | 0.802 | 0.233 | 0.446 | 0.475 | 0.409 | 0.452 | 0.419 | 0.882 | 0.646 | 0.748 | 0.782 | 0.615 |  | 0.199 | 0.174 | 0.232 | 0.22
NCI-H2347 | 1.2 | 0.922 | 1.01 | 0.784 | 0.73 | 0.356 | 0.369 | 0.308 | 0.449 | 0.277 | 0.325 | 0.328 | 0.196 | 0.193 | 0.205 | 0.917 | 0.966 | 0.979 | 0.98 | 0.877
NCI-H1915 | 1.07 | 1.08 | 1.03 | 1.02 | 0.423 | 0.338 | 0.383 | 0.397 | 0.392 | 0.302 | 0.336 | 0.27 | 0.238 | 0.173 | 0.151 | 1.08 | 1.14 | 1.13 | 1.11 | 1.08
NCI-H647 | 1.02 | 1.47 | 0.983 | 0.862 | 0.402 | 0.574 | 0.768 | 0.466 | 0.519 | 0.195 | 0.197 | 0.133 | 0.144 | 0.0844 | 0.064 | 1.11 | 1.27 | 1.19 | 0.901 | 0.588
NCI-H520 | 0.637 | 0.641 | 0.465 | 0.529 | 0.298 | 0.597 | 0.631 | 0.588 | 0.479 | 0.403 | 0.248 | 0.335 | 0.238 | 0.325 | 0.286 | 1.09 | 1.08 | 1.07 | 1.08 | 0.373
HCC-366 | 1.43 | 1.23 | 1.09 | 1.11 | 0.525 | 0.63 | 0.709 | 0.644 | 0.644 | 0.573 | 0.679 | 0.663 | 0.527 | 0.512 | 0.196 | 0.918 | 0.82 | 0.574 | 0.472 | 0.207
NCI-H2087 | 0.802 | 0.889 | 0.854 | 0.862 | 0.361 | 0.515 | 0.595 | 0.495 | 0.447 | 0.31 | 1 | 0.837 | 0.711 | 0.373 | 0.204 | 0.988 | 0.883 | 0.985 | 0.969 | 0.573
PC-3 [JPC-3] | 0.799 | 0.748 | 0.844 | 0.845 | 0.634 | 0.485 | 0.491 | 0.453 | 0.469 | 0.443 | 1.07 | 0.87 | 0.95 | 0.666 | 0.405 | 0.994 | 0.969 | 0.969 | 0.918 | 0.908
HOP-62 | 0.743 | 0.848 | 0.897 | 0.967 | 0.291 | 0.762 | 0.874 | 0.686 | 0.546 | 0.294 | 0.718 | 0.682 | 0.588 | 0.29 | 0.161 | 0.675 | 0.967 | 0.825 | 0.934 | 0.773
NCI-H2126 | 1.07 | 1.18 | 1.1 | 1.03 | 0.879 | 0.535 | 0.553 | 0.524 | 0.461 | 0.441 | 0.615 | 0.545 | 0.443 | 0.349 | 0.268 | 0.73 | 0.79 | 0.68 | 0.581 | 0.601
RERF-LC-KJ | 1.04 | 1.21 | 1.04 | 1.05 | 0.798 | 0.416 | 0.484 | 0.395 | 0.426 | 0.291 | 0.82 | 0.656 | 0.731 | 0.374 | 0.237 | 0.958 | 0.961 | 0.898 | 0.863 | 0.63
H3255 | 0.622 | 0.718 | 0.687 | 0.805 | 0.611 | 0.362 | 0.357 | 0.368 | 0.326 | 0.338 | 0.397 | 0.37 | 0.27 | 0.32 | 0.265 | 0.908 | 1.09 | 1.04 | 0.949 | 0.702

From the supplement of paper PMC10307832
